Test results taken from patent US7700765B2, “DNA minor groove binding compounds” (University of Strathclyde, priority 2001, dated 2010).
Converted amounts (≈) assume the structure as drawn.

Columns and labels:
[1] = system: Klebs. aerogenes; assay: Minimum inhibitory concentration (MIC) against microorganisms; type: cell-based; conditions: Klebsiella aerogenes; Organism: Klebs. aerogenes
From the text: (§1) Minimum inhibitory concentrations (MICs) against microorganisms (e.g. S. Aureus, E. coli, S. faecalis, P. vulgaris, MRSA, Aspergillus niger, Candida albicans, Klebs. aerogenes, Ent. cloacae, Mycobacterium fortuitum or Aspergillus nidulans) for compounds of the invention may be measured using procedures such as those described in A. J. Drummond and R. D. Waigh “The development of microbiological methods for phytochemical screening” Recent Res. Devel. Phytochem. 4, 143-152 (2000).

[2] = system: S. faecalis; assay: as above; type: cell-based; conditions: Enterococcus faecalis; Organism: S. faecalis
From the text: as §1

[3] = system: Ent. cloacae; assay: as above; type: cell-based; conditions: Enterobacter cloacae; Organism: Ent. cloacae
From the text: as §1

[4] = system: MRSA; assay: as above; type: cell-based; conditions: Staphylococcus aureus; Organism: MRSA
From the text: as §1

[5] = system: S. aureus; assay: as above; type: cell-based; conditions: Staphylococcus aureus; Organism: S. aureus
From the text: as §1

[6] = system: P. vulgaris; assay: as above; type: cell-based; conditions: Proteus vulgaris; Organism: P. vulgaris
From the text: as §1

[7] = system: E. coli; assay: as above; type: cell-based; conditions: Escherichia coli; Organism: E. coli
From the text: as §1

[8] = system: NFκB protein-DNA complexes; assay: NFκB DNA-binding assay (gel shift) with macrophage nuclear extracts; type: biochemical, Murine; conditions: 1 μL of a 1 mM solution, final volume 10 μL; nuclear protein from macrophages exposed to LPS
Description: Murine macrophages (obtained and cultured as described in Cell. Signal. 11(7), 491 (1999), hereinafter referred to as “Reference 1”, the disclosures of which document are hereby incorporated by reference) were exposed to vehicle (see Reference 1) or 1 μg/mL lipopolysaccharide (LPS; the active component of gram-negative endotoxin and a strong activator of the Nuclear Factor kappa B (NFκB) pathway; the particular LPS being obtained from Salmonella minnesota) for 1 hour and nuclear extracts prepared by standard procedures (see Brit. J. Pharmacol. 134, 393 (2001), hereinafter referred to as “Reference 2”, the disclosures of which document are hereby incorporated by reference).
Aliquots of compounds (1 μL of a 1 mM solution) were incubated with 1 μL (0.035 pmol) of a ^32P-labelled 20 bp double-stranded DNA oligonucleotide (representing the consensus binding sequence for NFκB proteins (see Reference 2 and Brit. J. Pharmacol. 134, 1629-1638 (2001), the disclosures of which latter document are hereby incorporated by reference)) for 30 min at room temperature. […] The formation of NFκB protein-DNA complexes and potential inhibition of complex formation in the presence of the above compounds was detected by autoradiography. […]

[9] = system: Candida albicans; assay: Minimum inhibitory concentration (MIC) against microorganisms; type: cell-based; conditions: Organism: Candida albicans
From the text: as §1

[10] = system: Mycobacterium fortuitum; assay: as above; type: cell-based; conditions: Mycolicibacterium fortuitum; Organism: Mycobacterium fortuitum
From the text: as §1

[11] = system: Aspergillus niger; assay: as above; type: cell-based; conditions: Organism: Aspergillus niger
From the text: as §1

[12] = system: Aspergillus nidulans; assay: as above; type: cell-based; conditions: Organism: Aspergillus nidulans
From the text: as §1

[13] = biological target: DNA; conditions: binding to DNA; read-out: dissociation constants; cited from earlier work
[14] = system: double-stranded DNA decamer CGACTAGTCG (SEQ ID NO:3); assay: Capillary electrophoresis ligand-DNA binding study; conditions: drug to DNA ratio up to 4:1
From the text: (§2) Typically, ligand binding results in a change in migration time of the DNA and sometimes a change in peak shape.
(§3) The following are shown in FIGS. 1-6: • (a) the experimental conditions, including the DNA sequence(s); • (b) the result of sequential addition of ligand; and • (c) the structure of the ligand being investigated. Key to FIGS. 1 to 6: • r0=electropherogram in the absence of drug • rX=(where X is 0.5, 1, 2, 3 or 4) electropherogram in the presence of drug, where the drug:DNA ratio (in terms of concentration) is X:1
This ratio corresponds to the binding ratio.

[15] = system: double-stranded DNA oligonucleotide AAATTATATTAT (SEQ ID NO:1); assay: Capillary electrophoresis ligand-DNA binding study; conditions: AAATTATATTAT versus GGGCCGCGCCGC
From the text: Capillary electrophoresis was used to study of ligand-DNA binding (see: (i) Hamdan, I. I.; Skellern, G. G.; and Waigh, R. D. “Separation of pd(GC)12 from pd(AT)12 by free solution capillary electrophoresis”, J. Cromatogr. A. 806, 165-168 (1998); (ii) Hamdan, I. I.; Skellern, G. G.; and Waigh, R. D. “Use of capillary electrophoresis in the study of ligand-DNA interactions”, Nucleic Acids Research 26, 3053-3058 (1998); (iii) Hamdan, I. I.; Skellern, G. G.; and Waigh, R. D. “Ligand binding to oligonucleotides” Methods in Molecular Biology, Vol. 163, “Capillary Electrophoresis of Nucleic acids”, Vol 2, pages 379-391, K. R. Mitchelson and J. Cheng Eds., Humana Press, New Jersey, (2000)).
as §2, §3
This ratio corresponds to the binding ratio. […]

MIC [1] | MIC [2] | MIC [3] | MIC [4] | MIC [5] | MIC [6] | MIC [7] | effect on LPS-stimulated NFκB-DNA binding activity [8] | MIC [9] | MIC [10] | MIC [11] | MIC [12] | affinity for the sequence [14] | SMILES | Kd [13] | AT selectivity [15]
32.3 µM (≈ 11.8 µg/mL) | 0.49 µM (≈ 0.179 µg/mL) | 4 µM (≈ 1.46 µg/mL) | 16.1 µM (≈ 5.88 µg/mL) | 0.49 µM (≈ 0.179 µg/mL) | 8.1 µM (≈ 2.96 µg/mL) | 2 µM (≈ 0.731 µg/mL) | – | – | – | – | – | – | CC1(C)S[C@@H]2[C@H](NC(=O)[C@H](N)c3ccc(O)cc3)C(=O)N2[C@H]1C(=O)O [Amoxicillin, reference compound] | – | –
– | – | – | – | – | – | – | little effect | – | – | – | – | – | CC(C)n1cc(NC(=O)c2cc(NC=O)cn2C)cc1C(=O)Nc1cc(C(=O)NCCCN(C)C)n(C)c1 [Example 2, N-[5-({[5-({[3-(Dimethylamino)propyl]amino}carbonyl)-1-methyl-1H-pyrrol-3-yl]amino}carbonyl)-1-isopropyl-1H-pyrrol-3-yl]-4-(formylamino)-1-methyl-1H-pyrrole-2-carboxamide] | – | –
76.2 µM (≈ 41.4 µg/mL) | 9.5 µM (≈ 5.16 µg/mL) | 76.2 µM (≈ 41.4 µg/mL) | 38.1 µM (≈ 20.7 µg/mL) | 4.7 µM (≈ 2.55 µg/mL) | 152 µM (≈ 82.6 µg/mL) | > 152 µM | – | 76.1 µM (≈ 41.3 µg/mL) | 19 µM (≈ 10.3 µg/mL) | 76.1 µM (≈ 41.3 µg/mL) | 38.1 µM (≈ 20.7 µg/mL) | – | CC(C)c1sc(NC(=O)c2cc(NC(=O)c3cc(NC=O)cn3C)cn2C)nc1C(=O)NCCCN(C)C [Example 3, N-[3-(Dimethylamino)propyl]-2-({[4-({[4-(formylamino)-1-methyl-1H-pyrrol-2-yl]carbonyl}amino)-1-methyl-1H-pyrrol-2-yl]carbonyl}amino)-5-isopropyl-1,3-thiazole-4-carboxamide] | – | –
38.1 µM (≈ 20.7 µg/mL) | 9.5 µM (≈ 5.16 µg/mL) | 9.5 µM (≈ 5.16 µg/mL) | 19.1 µM (≈ 10.4 µg/mL) | 4.8 µM (≈ 2.6 µg/mL) | 152 µM (≈ 82.7 µg/mL) | > 152 µM | – | 38.1 µM (≈ 20.7 µg/mL) | 19 µM (≈ 10.3 µg/mL) | 38.1 µM (≈ 20.7 µg/mL) | 9.5 µM (≈ 5.16 µg/mL) | – | CC(C)c1sc(NC(=O)c2cc(NC=O)cn2C)nc1C(=O)Nc1cc(C(=O)NCCCN(C)C)n(C)c1 [Example 7, N-[5-({[3-(Dimethylamino)propyl]amino}carbonyl)-1-methyl-1H-pyrrol-3-yl]-2-({[4-(formylamino)-1-methyl-1H-pyrrol-2-yl]carbonyl}amino)-5-isopropyl-1,3-thiazole-4-carboxamide] | – | –
38.9 µM (≈ 41.2 µg/mL) | 77.7 µM (≈ 82.2 µg/mL) | > 77.7 µM | > 77.7 µM | 19.4 µM (≈ 20.5 µg/mL) | 77.7 µM (≈ 82.2 µg/mL) | > 77.7 µM | – | > 77.7 µM | > 77.7 µM | > 77.7 µM | 77.7 µM (≈ 82.2 µg/mL) | – | CC(C)CCn1cc(NC(=O)c2ccc3[nH]c(C(=O)Nc4cc(C(=O)Nc5cc(C(=O)NCCCN6CCOCC6)n(C)c5)n(CCC(C)C)c4)cc3c2)cc1C(=O)Nc1cc(C(=O)NCCCN2CCOCC2)n(C)c1 [Example 17, N^2,N^5-Bis[1-isopentyl-5-({[1-methyl-5-({[3-(4-morpholinyl)propyl]amino}-carbonyl)-1H-pyrrol-3-yl]amino}carbonyl)-1H-pyrrol-3-yl]-1H-indole-2,5-dicarboxamide] | – | –
> 80.3 µM | 10 µM (≈ 10.2 µg/mL) | > 80.3 µM | 10 µM (≈ 10.2 µg/mL) | 80 µM (≈ 81.4 µg/mL) | > 80.3 µM | > 80.3 µM | – | > 80.3 µM | 40.1 µM (≈ 40.8 µg/mL) | > 80.3 µM | 20.1 µM (≈ 20.4 µg/mL) | – | CC(C)c1sc(NC(=O)c2cc(NC(=O)c3ccc4c(c3)CCc3cc(C(=O)Nc5cc(C(=O)Nc6nc(C(=O)NCCCN(C)C)c(C(C)C)s6)n(C)c5)ccc3-4)cn2C)nc1C(=O)NCCCN(C)C [Example 28, N^2,N^7-Bis[5-({[4-({[3-(dimethylamino)propyl]amino}carbonyl)-5-isopropyl-1,3-thiazol-2-yl]amino}carbonyl)-1-methyl-1H-pyrrol-3-yl]-9,10-dihydro-2,7-phenanthrenedicarboxamide] | – | –
– | – | – | – | – | – | – | – | 81.6 µM (≈ 25 µg/mL) | – | > 327 µM | 40.8 µM (≈ 12.5 µg/mL) | – | OC(Cn1cncn1)(Cn1cncn1)c1ccc(F)cc1F [Fluconazole, reference compound] | – | –
– | – | – | – | – | – | – | – | – | 21.5 µM (≈ 12.5 µg/mL) | – | – | – | [H]/N=C(/N)N[C@H]1[C@H](O)[C@@H](O)[C@H](O[C@@H]2O[C@@H](C)[C@](O)(C=O)[C@H]2O[C@@H]2O[C@@H](CO)[C@H](O)[C@@H](O)[C@@H]2NC)[C@@H](N/C(N)=N\[H])[C@@H]1O [Streptomycin, reference compound] | – | –
– | – | – | – | – | – | – | – | – | – | – | – | no affinity | Cn1cc(NC(=O)c2cc(NC(=O)c3cc(NC=O)cn3C)cn2C)cc1C(=O)NCCC(=N)N [distamycin, reference compound] | ~10 µM | –
– | – | – | – | – | – | – | – | – | – | – | – | – | Cn1cc(NC(=O)c2cc(NC(=O)CN=C(N)N)cn2C)cc1C(=O)NCCC(=N)N [netropsin] | ~10 µM | AT selective
